From patent publication EP1988171A1, “SUBSTANCE FKI-2342 AND PROCESS FOR PRODUCTION THEREOF” (THE KITASATO INSTITUTE, priority 2006, dated 2007)
In brackets after ≈: the same amount, converted by molar mass. Where two headings read alike, the source gives them in different places.

What was measured:
[1] = test system: HCT-116 cells; assay: Inhibitory action for G2 checkpoint using HCT-116 cells (cell cycle by FACS); assay type: cell-based, human; conditions: for IC50: Homo sapiens, 24 hours; for Selectivity IC50(col) /IC50(bleo): Table 2
Description: (§1) An assay method of G2 arrest activity with treatment of anticancer agent using cancer cells is performed according to the method of Suganuma et al. (Cancer Research, […]: 5887-5891, 1999).
A cell suspension (15 ml) of HCT-116 cells derived from human colon cancer, adjusted to 1.5 × 10^5 cells/ml with McCoy's medium, was cultured in McCoy's 5A medium (a medium adding an inactivated fetal bovine serum (FBS) […] and a mixture 5 ml of penicillin (10,000 units/ml) and streptomycin (10 mg/ml) in McCoy's 5A (Invitrogen Inc.) 500 ml) in a 75-cm^3 culture flask (Corning Corp., the U.S.) under the atmosphere of […] at 37°C, and a subinoculation was performed after 3 days.
HCT-116 cells (500 µl) adjusted to give 1.5×10^5 cells/ml. were added into each well of a 24-well microplate (IWAKI Co., Japan) and incubated at 37°C for 24 hours. Thereafter, the medium was removed and 250 µl of 27 µM bleomycin or that of 0.5 µM colcicine prepared with McCoy's 5A medium were added in each well, and FKI-2342A substance - FKI-2342F substance dissolved in 0.5% DMSO, each 250 µl, were added (final concentration: bleomycin 13 µM, colchicine 0.25 µM, and 0.25% DMSO). The plate was incubated under […] at 37°C for 24 hours. After the incubation, the supernatant was recovered in 1.5 ml Eppendorf tube and stored on ice. Cells on the plate were detached by adding trypsin-EDTA solution (150 µl) and culturing at 37°C for 10 minutes. Immediately after the cells were detached, 300 µl of the medium were added to denature the trypsin, and were mixed with the supernatant which was stored on the ice. The mixture was centrifuged at 1,000 rpm for 10 minutes, and the supernatant was removed by using the aspirator, then Krishan's reagent (200 µl) was added thereto, and after allowing to stand for 1 hour, measurement was performed by using FACS.
Measurement of cell cycle was performed by measuring 10,000 cells using FACS Caliber (Becton Dickinson Inc.) to calculate ratio of cells in sub G1, G1, S, and G2/M phase by using analytical software cell Quest.
(§2) Experimental results in relation to FKI-2342A substance - F substance were obtained by using the index of the G2/M phase cell. A concentration of substance, in which the number of cells at G2 phase is reduced to 50% when the number of cells arrested at G2 phase by treatment with bleomycin is' set as 100%, is calculated as IC50 (bleo), and similarly a concentration of substance, in which the number of cells at M phase is reduced to 50%, is calculated as IC50 (col), and the specificity to the G2 phase cells as the selectivity is shown in Table'2.

[2] = test system: Jurkat cells; assay: Inhibitory action for G2 checkpoint using Jurkat cells (cell cycle by FACS); assay type: cell-based, human; conditions: for IC50: Homo sapiens; for selectivity: specificity to the G2 phase cells, Table 1; for differences between both concentrations: IC50 (col) versus IC50 (bleo)
Description: as §1
Jurkat cells derived from human lymphoma were cultured in RPMI 1640 medium (a medium adding an inactivated fetal bovine serum (JRH Bioscience Inc.) 50 ml and a mixture 50 ml of penicillin (10,000 units/ml) and streptomycin (10 mg/ml) (Invitrogen Inc.) in RPMI 1640 (IWAKI Co., Ltd.) 500 ml) by using a 75 cm^3 culture flask. After centrifugation of the Jurkat cells at 1, 000 rpm for 10 minutes, the supernatant was removed by using aspirator to adjust the number of cells to be 5 × 10^5 cells/ml with addition of RPMI 1640 medium. Bleomycin (Nippon Kayaku Co., Ltd.) or colchicines (Sigma Inc.) was added to be the final concentration of 40 µM or 0.5 µM, respectively, into the cell suspension. The suspension was added into each well of 96 well multiplate (Corning Corp., the U.S.), which was previously air dried after adding FKI-2342A - F substances 200 µl (1 × 10^5 cells/well) in each well, and incubated at 37°C for 20 hours.
Cells after culturing for 20 hours were centrifuged at 1,000 rpm for 10 minutes, and the supernatant was removed by using aspirator. Krishan's reagent (trisodium citrate (Wako Pure Chemical Industries, Ltd.) […], IGEPALCA-630 (Sigma Inc.) 1.5 ml, ribonuclease A (Sigma Inc.) 10 mg and propydium iodide (Sigma Inc.) 25 mg dissolved in sterilized water 50.0 ml) […] was added to each well. The well was covered with aluminum foil for light shielding and allowed to stand at room temperature for 1 hour with gently shaking by the shaker to perform DNA staining. Measurement of cell cycle was performed by measuring 10,000 cells using FACS Caliber (Becton Dickinson Inc.) to calculate ratio of cells in sub G1, G1, S, and G2/M phase by using analytical software Ce 11 Quest.
as §2, with “substance wherein” for “substance, in which”, “is” for “is'”, “50%” for “50%,”, “Table 1.” for “Table'2.”

[3] = cells arrested at G2 phase by bleomycin 13 µM reduced to 50%, read-out: IC50 bleomycin
[4] = cells at M phase (colchicine 0.25 µM) reduced to 50%, read-out: IC50 colchicine
[5] = cells arrested at G2 phase by bleomycin 40 µM reduced to 50%, 20 hours, Table 1, read-out: IC50 bleomycin
[6] = cells at M phase (colchicine 0.5 µM) reduced to 50%, 20 hours, Table 1, read-out: IC50 colchicine
[7] = cells arrested at G2 phase by bleomycin reduced to 50%, read-out: IC50 (bleo)
[8] = cells at M phase (colchicine) reduced to 50%, read-out: IC50 (col)

Structure (SMILES) | IC50 [1, 3] [µg/mL] | IC50 [1, 4] [µg/mL] | Selectivity IC50(col) /IC50(bleo) [1] | IC50 [2, 5] [µg/mL] | IC50 [2, 6] [µg/mL] | differences in a concentration ratio (IC50 (col) / IC50 (bleo)) [1] [fold] | IC50 [2, 7] [µg/mL] | IC50 [2, 8] [µg/mL] | selectivity [2] | differences between both concentrations [2] [fold]
C=C(C(=O)O)C(CCCC(=O)OC)C(=O)OC (centres unmarked) [A] | 120 (≈ 491 µM) | 180 (≈ 737 µM) | 2 | 100 (≈ 409 µM) | 200 (≈ 819 µM) |  |  |  | 2 | 
C=C(C(=O)O)C(CCCCCC(=O)OCC)C(=O)O (centres unmarked) [C] | 120 (≈ 441 µM) | 180 (≈ 661 µM) | 2 | 100 (≈ 367 µM) | 200 (≈ 734 µM) |  |  |  | 2 | 
C=C(C(=O)O)C(CCCC(=O)OCC)C(=O)O (centres unmarked) [F] | 100 (≈ 409 µM) | 180 (≈ 737 µM) | 2 | 100 (≈ 409 µM) | 200 (≈ 819 µM) |  |  |  | 2 | 
C=C(C(=O)O)C(CCCCCC(=O)OC)C(=O)OC (centres unmarked) [D] | 25 (≈ 91.8 µM) | 100 (≈ 367 µM) | 7 | 25 (≈ 91.8 µM) | 175 (≈ 643 µM) | 4 | 25 (≈ 91.8 µM) | 175 (≈ 643 µM) | 7 | 7

Further lines, with some results ahead:

IC50 [1, 3] [µg/mL] | IC50 [1, 4] [µg/mL] | Selectivity IC50(col) /IC50(bleo) [1] | IC50 [2, 5] [µg/mL] | IC50 [2, 6] [µg/mL] | differences in a concentration ratio (IC50 (col) / IC50 (bleo)) [1] [fold] | IC50 [2, 7] [µg/mL] | IC50 [2, 8] [µg/mL] | Structure (SMILES) | selectivity [2] | differences between both concentrations [2] [fold]
120 (≈ 465 µM) | 180 (≈ 697 µM) | 2 | 100 (≈ 387 µM) | 200 (≈ 774 µM) |  |  |  | C=C(C(=O)O)C(CCCCCC(=O)OC)C(=O)O (centres unmarked) [B] | 2 | 
2 (≈ 6.99 µM) | 20 (≈ 69.9 µM) | 8 | 1.2 (≈ 4.19 µM) | 10 (≈ 34.9 µM) | 10 | 1.2 (≈ 4.19 µM) | 10 (≈ 34.9 µM) | C=C(C(=O)O)C(CCCCCCCC(=O)OC)C(=O)O (centres unmarked) [E] | 8 | 8
